Experiments:
[1] = target: Vascular endothelial growth factor receptor 2 (Homo sapiens, UniProt P35968); experiment: Inhibitory activity at VEGF-2 receptor.
[2] = target: VEGF-receptor 2 and PDGF-receptor beta (KDR and PDGFR beta) (Homo sapiens) (UniProt P09619+P35968); experiment: Selectivity for Vascular endothelial growth factor receptor 2 over Platelet-derived growth factor receptor beta; format: protein assay
[3] = target: VEGF-receptor 2 and tyrosine-protein kinase SRC (Homo sapiens) (UniProt P12931+P35968); experiment: Selectivity for Vascular endothelial growth factor receptor 2 over c-Src kinase; format: protein assay
Chain of VEGF-receptor 2 and tyrosine-protein kinase SRC (Homo sapiens) (P12931 whole entry, looked up): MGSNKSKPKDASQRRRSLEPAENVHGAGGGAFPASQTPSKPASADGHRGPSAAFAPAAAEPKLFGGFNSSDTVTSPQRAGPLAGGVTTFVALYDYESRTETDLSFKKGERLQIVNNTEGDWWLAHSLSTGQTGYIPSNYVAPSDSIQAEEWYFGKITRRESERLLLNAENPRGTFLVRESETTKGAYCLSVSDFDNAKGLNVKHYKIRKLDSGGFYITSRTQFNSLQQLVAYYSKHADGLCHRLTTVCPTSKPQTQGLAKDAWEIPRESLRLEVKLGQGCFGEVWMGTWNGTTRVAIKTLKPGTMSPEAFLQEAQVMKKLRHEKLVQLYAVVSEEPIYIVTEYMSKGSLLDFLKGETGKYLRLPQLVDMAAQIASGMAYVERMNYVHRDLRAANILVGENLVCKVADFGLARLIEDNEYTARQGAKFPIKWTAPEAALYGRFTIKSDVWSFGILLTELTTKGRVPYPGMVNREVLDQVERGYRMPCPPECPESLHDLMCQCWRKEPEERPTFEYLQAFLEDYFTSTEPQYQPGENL
Chain of VEGF-receptor 2 and tyrosine-protein kinase SRC (Homo sapiens) (P35968 whole entry, looked up): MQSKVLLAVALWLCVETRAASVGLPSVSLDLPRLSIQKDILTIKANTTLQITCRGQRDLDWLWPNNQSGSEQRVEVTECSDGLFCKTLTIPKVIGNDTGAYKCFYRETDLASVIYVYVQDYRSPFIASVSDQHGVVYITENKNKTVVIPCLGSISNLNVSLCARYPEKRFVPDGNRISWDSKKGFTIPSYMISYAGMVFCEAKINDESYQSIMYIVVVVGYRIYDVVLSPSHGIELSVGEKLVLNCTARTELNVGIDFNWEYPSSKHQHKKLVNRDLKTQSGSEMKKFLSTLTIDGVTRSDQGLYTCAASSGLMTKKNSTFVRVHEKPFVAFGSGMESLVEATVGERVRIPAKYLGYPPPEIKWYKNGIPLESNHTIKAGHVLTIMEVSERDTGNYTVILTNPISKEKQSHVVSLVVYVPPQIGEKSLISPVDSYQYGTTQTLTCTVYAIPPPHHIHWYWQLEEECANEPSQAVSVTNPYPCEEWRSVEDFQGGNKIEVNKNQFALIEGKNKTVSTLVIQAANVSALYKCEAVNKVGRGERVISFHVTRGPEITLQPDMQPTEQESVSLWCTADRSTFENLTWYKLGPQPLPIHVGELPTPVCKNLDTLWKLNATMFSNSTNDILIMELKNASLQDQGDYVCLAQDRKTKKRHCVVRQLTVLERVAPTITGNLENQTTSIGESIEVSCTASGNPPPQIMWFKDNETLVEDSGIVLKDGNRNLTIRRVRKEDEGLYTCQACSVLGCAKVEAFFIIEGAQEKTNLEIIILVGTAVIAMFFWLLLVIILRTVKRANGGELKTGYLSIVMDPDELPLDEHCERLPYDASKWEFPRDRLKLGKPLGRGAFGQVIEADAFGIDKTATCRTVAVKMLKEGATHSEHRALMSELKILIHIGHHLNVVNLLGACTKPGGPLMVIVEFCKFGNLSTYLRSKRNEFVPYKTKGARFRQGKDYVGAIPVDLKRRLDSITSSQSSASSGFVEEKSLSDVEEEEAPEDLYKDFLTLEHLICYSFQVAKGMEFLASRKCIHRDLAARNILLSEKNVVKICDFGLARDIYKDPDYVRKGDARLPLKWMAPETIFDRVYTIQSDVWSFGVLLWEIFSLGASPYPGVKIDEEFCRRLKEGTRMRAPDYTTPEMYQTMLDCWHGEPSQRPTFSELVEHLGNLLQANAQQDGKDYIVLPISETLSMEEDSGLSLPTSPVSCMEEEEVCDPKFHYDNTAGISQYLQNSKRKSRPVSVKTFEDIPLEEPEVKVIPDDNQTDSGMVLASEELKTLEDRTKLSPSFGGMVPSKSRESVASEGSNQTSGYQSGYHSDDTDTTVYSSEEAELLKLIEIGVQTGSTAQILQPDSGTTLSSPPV

[4] = Partition coefficient (logP); format: physicochemical; details: octanol/water
[5] = target: Vascular endothelial growth factor receptor 2 and 3 (KDR and Flt-4) (Homo sapiens) (UniProt P35916+P35968); experiment: Selectivity for VEGF-receptor 2 (KDR) over Vascular endothelial growth factor receptor 3 (FLT4); format: protein assay
Chain of Vascular endothelial growth factor receptor 2 and 3 (KDR and Flt-4) (Homo sapiens) (P35916 whole entry, looked up): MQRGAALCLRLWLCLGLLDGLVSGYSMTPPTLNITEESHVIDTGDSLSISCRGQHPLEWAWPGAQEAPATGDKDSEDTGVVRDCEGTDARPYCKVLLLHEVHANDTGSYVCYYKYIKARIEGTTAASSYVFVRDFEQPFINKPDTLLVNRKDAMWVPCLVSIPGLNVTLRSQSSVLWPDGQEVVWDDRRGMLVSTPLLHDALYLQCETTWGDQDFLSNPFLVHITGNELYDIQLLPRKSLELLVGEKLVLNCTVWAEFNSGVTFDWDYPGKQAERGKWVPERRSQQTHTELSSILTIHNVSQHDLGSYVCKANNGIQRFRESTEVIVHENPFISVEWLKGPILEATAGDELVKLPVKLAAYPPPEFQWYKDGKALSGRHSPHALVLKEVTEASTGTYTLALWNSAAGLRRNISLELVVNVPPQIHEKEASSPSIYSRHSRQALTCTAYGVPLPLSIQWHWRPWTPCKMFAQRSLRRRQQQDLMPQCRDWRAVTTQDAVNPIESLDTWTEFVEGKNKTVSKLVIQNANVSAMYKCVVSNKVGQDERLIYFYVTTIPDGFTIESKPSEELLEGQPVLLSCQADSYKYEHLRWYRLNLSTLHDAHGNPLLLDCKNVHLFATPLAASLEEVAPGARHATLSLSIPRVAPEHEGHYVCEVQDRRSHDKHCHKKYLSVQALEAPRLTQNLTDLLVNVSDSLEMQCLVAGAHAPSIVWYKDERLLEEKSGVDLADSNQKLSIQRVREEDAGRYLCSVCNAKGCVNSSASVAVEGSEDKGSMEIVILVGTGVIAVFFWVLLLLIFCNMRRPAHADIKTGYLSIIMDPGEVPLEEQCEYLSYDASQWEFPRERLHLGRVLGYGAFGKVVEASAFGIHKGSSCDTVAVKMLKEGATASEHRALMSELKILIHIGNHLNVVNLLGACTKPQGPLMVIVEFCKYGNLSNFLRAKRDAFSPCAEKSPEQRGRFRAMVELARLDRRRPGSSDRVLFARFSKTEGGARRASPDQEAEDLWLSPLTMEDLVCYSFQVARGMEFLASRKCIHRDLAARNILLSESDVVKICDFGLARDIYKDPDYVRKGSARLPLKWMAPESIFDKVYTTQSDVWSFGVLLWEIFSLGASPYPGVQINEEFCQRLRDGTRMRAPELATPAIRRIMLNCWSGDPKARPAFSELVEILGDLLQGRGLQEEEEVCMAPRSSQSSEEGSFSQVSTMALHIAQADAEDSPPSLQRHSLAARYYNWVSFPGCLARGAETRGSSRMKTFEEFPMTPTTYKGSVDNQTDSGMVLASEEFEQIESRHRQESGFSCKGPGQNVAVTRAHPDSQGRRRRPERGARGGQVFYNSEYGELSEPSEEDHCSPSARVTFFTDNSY
Chain of Vascular endothelial growth factor receptor 2 and 3 (KDR and Flt-4) (Homo sapiens) (P35968 whole entry, looked up): as the sequence (P35968 whole entry, looked up) above

[6] = target: Vascular endothelial growth factor receptor (Homo sapiens, UniProt P17948+P35916+P35968); details: endothelial cell
Description: Inhibition of VEGF-stimulated mitogenesis in human umbilical vein endothelial cells

Chain of Vascular endothelial growth factor receptor 2 (P35968 whole entry): as the sequence (P35968 whole entry, looked up) above
Chain of VEGF-receptor 2 and PDGF-receptor beta (KDR and PDGFR beta) (Homo sapiens) (P09619 whole entry, looked up): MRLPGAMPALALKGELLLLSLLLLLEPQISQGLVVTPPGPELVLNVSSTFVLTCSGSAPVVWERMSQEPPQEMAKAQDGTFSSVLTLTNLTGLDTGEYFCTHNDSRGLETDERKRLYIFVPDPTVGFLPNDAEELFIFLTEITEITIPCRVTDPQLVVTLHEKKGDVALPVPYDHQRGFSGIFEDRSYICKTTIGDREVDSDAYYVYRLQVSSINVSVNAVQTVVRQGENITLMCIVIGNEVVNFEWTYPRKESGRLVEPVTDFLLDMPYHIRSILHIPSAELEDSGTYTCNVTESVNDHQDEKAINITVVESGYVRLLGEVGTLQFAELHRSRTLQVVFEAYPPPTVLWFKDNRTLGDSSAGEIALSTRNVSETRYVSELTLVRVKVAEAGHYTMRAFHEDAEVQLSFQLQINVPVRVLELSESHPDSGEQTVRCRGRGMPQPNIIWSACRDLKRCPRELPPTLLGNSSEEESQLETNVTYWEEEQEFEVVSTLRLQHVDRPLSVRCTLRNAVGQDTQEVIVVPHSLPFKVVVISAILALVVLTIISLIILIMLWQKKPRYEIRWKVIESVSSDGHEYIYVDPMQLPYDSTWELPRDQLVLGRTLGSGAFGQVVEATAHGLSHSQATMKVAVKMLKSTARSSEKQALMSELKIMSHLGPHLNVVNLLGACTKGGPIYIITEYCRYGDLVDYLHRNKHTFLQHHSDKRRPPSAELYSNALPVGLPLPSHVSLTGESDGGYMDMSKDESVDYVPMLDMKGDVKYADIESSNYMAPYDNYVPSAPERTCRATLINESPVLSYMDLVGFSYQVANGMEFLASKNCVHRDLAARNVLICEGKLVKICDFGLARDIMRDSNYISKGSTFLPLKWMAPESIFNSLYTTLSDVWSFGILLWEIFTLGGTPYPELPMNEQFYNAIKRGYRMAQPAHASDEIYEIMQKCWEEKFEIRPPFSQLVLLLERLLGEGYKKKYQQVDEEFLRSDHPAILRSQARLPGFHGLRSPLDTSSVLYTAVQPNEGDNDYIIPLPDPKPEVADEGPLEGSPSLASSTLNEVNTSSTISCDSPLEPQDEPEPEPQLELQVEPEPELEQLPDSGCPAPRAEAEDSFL
Chain of VEGF-receptor 2 and PDGF-receptor beta (KDR and PDGFR beta) (Homo sapiens) (P35968 whole entry, looked up): as the sequence (P35968 whole entry, looked up) above

Row | SMILES | IC50 [1] [nM] | also measured
1 | COc1cccc(-c2cnn3cc(-c4ccncc4)cnc23)c1 | 510 | –
2 | Fc1ccc(-c2cnn3cc(-c4ccncc4)cnc23)cc1 | 63 | –
3 | Clc1ccc(-c2cnc3c(-c4ccncc4)cnn3c2)cc1 | 113 | –
4 | c1ccc(-c2cnn3cc(-c4ccncc4)cnc23)cc1 | 71 | –
5 | COc1ccc(-c2cnc3c(-c4ccccn4)cnn3c2)cc1 | 1000 | –
6 | COc1ccc(-c2cnc3c(-c4cccnc4)cnn3c2)cc1 | 41 | –
7 | COc1ccc(-c2cnc3c(-c4ccncc4)cnn3c2)cc1 | – | Ratio [2]: 0.5; Ratio [3]: 27; logP [4]: 4; Ratio [5]: 2.2
8 | c1cc(-c2cnn3cc(C4CCCCC4)cnc23)cs1 | 280 | –
9 | Fc1ccc(-c2cnn3cc(-c4ccncc4)cnc23)cc1Cl | 265 | –
10 | c1cc(-c2cnc3c(-c4ccsc4)cnn3c2)ccn1 | – | IC50 [6]: 127 nM
11 | c1ccc(-c2cnn3cc(-c4ccccn4)cnc23)cc1 | 88 | –
12 | C1=C(c2cnn3cc(-c4ccncc4)cnc23)CCC1 | 28 | –
13 | Cc1ccc(-c2cnc3c(-c4ccncc4)cnn3c2)cc1 | 62 | –
14 | Clc1cccc(-c2cnn3cc(-c4ccncc4)cnc23)c1 | 350 | –
15 | COc1ccc(-c2cnc3c(-c4ccsc4)cnn3c2)cc1 | – | logP [4]: > 4
16 | C1=C(c2cnn3cc(-c4ccncc4)cnc23)CCCC1 | 41 | –
17 | c1cc(-c2cnc3c(-c4ccncc4)cnn3c2)ccn1 | – | logP [4]: 2.5

Reference: ChEMBL document CHEMBL1135353, “Synthesis and initial SAR studies of 3,6-disubstituted pyrazolo[1,5-a]pyrimidines: a new class of KDR kinase inhibitors” (Bioorg Med Chem Lett, 2002)
